From patent US5310745A, “Antiviral compounds” (priority 1992, dated 1994)

Assays:
Type in all cases: cell-based
visna virus = test: Plaque reduction assay, inhibition of visna virus in vitro; set-up: key to Antiviral Activity: A: active compound; I: inactive compound; settings: for Antiviral Activity: Table 1; for inhibition at 100 µM / inhibition at 1000 µM / inhibition at 10 µM / inhibition at 1 µM: Visna-maedi virus; for inhibition at 100 µM / inhibition at 1000 µM / % Plaque Reduction / inhibition at 10 µM / inhibition at 1 µM: Table 2; for inhibition at 1 µM: 0.001 mM
From the text: Visna virus, a lentivirus genetically very similar to the AIDS virus, is pathogenic for sheep and goats. See Sonigo et al., Cell 42, 369-382 (1985); Haase, Nature 322, 130-136 (1986). Inhibition of visna virus replication in vitro as a useful model for human immunodeficiency virus (HIV) and its inhibition by test compounds has been described by Franket al., Antimicrobial Agents and Chemotherapy 31 (9), 1369-1374 (1987). The N-butyl derivative of 1,5-dideoxy-1,5-imino-D-glucitol, also referred to as n-butyl-deoxynojirimycin (N-Bu-DNJ), was used as a control standard for comparison with various novel compounds of this invention.
Various compounds as prepared above were tested for inhibition of visna virus in vitro in a plaque reduction assay as follows:
(§1) Sheep choroid plexus (SCP) cells were obtained from American Type Culture Collection (ATCC) catalogue number CRL 1700 and were routinely passaged in vitro in Dulbecco's Modified Eagles (DME) medium supplemented with 20% fetal bovine serum (FBS). SCP cells were passaged once per week at a 1:2 or 1:3 split ratio. Visna was titrated by plaque assay in six-well plates. Virus pools were stored at -70° C.
(§2) SCP cells were cultured in 6-well plates to confluence. Wells were washed two times with serum free Minimal Essential Medium (MEM) to remove FBS. 0.2 ml of virus was added per well in MEM supplemented with 4 mM glutamine and gentamycin. After 1 hour adsorption, the virus was aspirated from each well. The appropriate concentration of each compound in 5 ml of Medium 199 (M-199) supplemented With 2% lamb serum, 4 mM glutamine, 0.5% agarose and gentamycin was added to each well. Cultures were incubated at 37° C. in a humidified 5% CO2 incubator for 3-4 weeks. To terminate the test: cultures were fixed in 10% formalin, the agar removed, the monolayers stained with 1% crystal violet and plaques counted. Each compound concentration was run in triplicate. […] 0 is no toxicity observed while 4 is total lysing of the cell monolayer.

[1] = system: Sheep choroid plexus (SCP) cells; test: Toxicity of compounds in control wells without virus, graded morphologically
Method: as §1, §2

[2] = system: Sheep choroid plexus (SCP) cells; test: as above; set-up: key: 0: no toxicity observed; 4: total lysing of the cell monolayer; settings: graded 0 to 4, Table 2
Method: as §1, §2

[3] = 0.03125 mM, 0 to 4 scale, Table 1
[4] = 0.01 mM, graded 0 to 4, Table 2

| SMILES | inhibition at 100 µM (visna virus; 0.1 mM) [%] | inhibition at 1000 µM (visna virus; 1.0 mM) [%] | Toxicity ([1]; 1.0 mM, graded 0 to 4, Table 2) | Toxicity ([2]; 0.1 mM) | Toxicity ([1]; 0.1 mM, graded 0 to 4, Table 2) | Toxicity ([2]; 1.0 mM) | % Plaque Reduction (visna virus; 1.0 mM) | Toxicity ([2]; 0.01 mM) | inhibition at 10 µM (visna virus; 0.01 mM) [%] | inhibition at 1 µM (visna virus) [%] | Toxicity ([2]; 0.001 mM) | further results |
| --- | --- | --- | --- | --- | --- | --- | --- | --- | --- | --- | --- | --- |
| CC(=O)OC[C@@H]1[C@@H](OC(C)=O)[C@H](OC(C)=O)[C@@H](OC(C)=O)CN1C [Example 10, 1,5-(Methylimino)-1,5-dideoxy-D-glucitol, tetraacetate] | – | – | – | – | – | – | – | – | – | – | – | Antiviral Activity (visna virus; 0.03125 mM): A; Antiviral Activity (visna virus; 0.0625 mM): A; Antiviral Activity (visna virus; 0.125 mM): A; Toxicity [1, 3]: 1; Toxicity ([1]; 0.0625 mM, 0 to 4 scale, Table 1): 2; Toxicity ([1]; 0.125 mM, 0 to 4 scale, Table 1): 3 |
| CCCCCCN1C[C@H](OC(C)=O)[C@@H](OC(C)=O)[C@H](OC(C)=O)[C@H]1COC(C)=O [Example 12, 1,5-(Hexylimino)-1,5-dideoxy-D-glucitol, tetraacetate] | – | – | – | – | – | – | – | – | – | – | – | Antiviral Activity (visna virus; 0.0075 mM): A; Antiviral Activity (visna virus; 0.0156 mM): A; Antiviral Activity (visna virus; 0.03125 mM): A; Toxicity ([1]; 0.0075 mM, 0 to 4 scale, Table 1): 1; Toxicity ([1]; 0.0156 mM, 0 to 4 scale, Table 1): 1; Toxicity [1, 3]: 2 |
| CC(=O)OC[C@@H]1[C@@H](OC(C)=O)[C@H](OC(C)=O)[C@@H](OC(C)=O)CN1C(=O)COc1ccccc1 [Example 25, 1,5-[(Phenoxymethyl)carbonylimino]-1,5-dideoxy-D-glucitol, tetraacetate] | – | – | – | – | – | – | – | – | – | – | – | Antiviral Activity (visna virus; 0.1 mM): A; Antiviral Activity (visna virus; 1.0 mM): A; Toxicity ([1]; 0.1 mM, 0 to 4 scale, Table 1): 1; Toxicity ([1]; 1.0 mM, 0 to 4 scale, Table 1): 2 |
| CCC(CC)CN1C[C@H](OC(C)=O)[C@@H](OC(C)=O)[C@H](OC(C)=O)[C@H]1COC(C)=O [Example 27, 1,5-[(2-Ethylbutyl)imino]-1,5-dideoxy-D-glucitol, tetraacetate] | 12 | 65 | 3 | 0 | – | – | – | – | – | – | – | – |
| CCCCN1C[C@H](OC(C)=O)[C@@H](OC(C)=O)[C@H](O)[C@H]1CO [Example 28, 1,5-(Butylimino)-1,5-dideoxy-D-glucitol, 2,3-diacetate] | 44 | 87 | – | – | 2 | 4 | – | – | – | – | – | – |
| CCCC(C)CN1C[C@H](OC(C)=O)[C@@H](OC(C)=O)[C@H](OC(C)=O)[C@H]1COC(C)=O (stereo partly drawn) [Example 33, 1,5-[(2-Methylpentyl)imino]-1,5-dideoxy-D-glucitol, tetraacetate] | – | – | 3 | 0 | – | – | 63% | 0 | – | – | – | % Plaque Reduction (visna virus; 0.01 mM): 21%; % Plaque Reduction (visna virus; 0.1 mM): 28% |
| CC(=O)OC[C@@H]1[C@@H](OC(C)=O)[C@H](OC(C)=O)[C@@H](OC(C)=O)CN1C(=O)c1cccnc1 [Example 35, 1,5-[(3-Nicotinoyl)imino]-1,5-dideoxy-D-glucitol, tetraacetate] | 90 | 94 | 3 | – | 1 | – | – | 0 | 10 | – | – | – |
| CC(=O)OC[C@@H]1[C@@H](OC(C)=O)[C@H](OC(C)=O)[C@@H](OC(C)=O)CN1C(=O)C=Cc1ccccc1 [Example 36, 1,5-(Cinnamoylimino)-1,5-dideoxy-D-glucitol, tetraacetate] | – | – | – | 4 | – | 4 | Toxic | 0 | 76 | 42 | 0 | % Plaque Reduction (visna virus; 0.1 mM): Toxic |
| CCCCN1C[C@H](OC(=O)CCC)[C@@H](OC(=O)CCC)[C@H](O)[C@H]1CO [Example 38, 1,5-(Butylimino)-1,5-dideoxy-D-glucitol, 2,3-dibutyrate] | 80 | – | – | – | 2 | 4 | Toxic | 0 | 54 | 47 | 0 | – |
| CC(C)C(=O)OC[C@@H]1[C@@H](OC(=O)C(C)C)[C@H](OC(=O)C(C)C)[C@@H](OC(=O)C(C)C)CN1C(=O)Cc1ccccc1 [Example 39, 1,5-(Phenylacetylimino)-1,5-dideoxy-D-glucitol, tetraisobutyrate] | 56 | 95 | 3 | – | 1 | – | – | 0 | 19 | – | – | – |
| CC(=O)OC[C@@H]1[C@@H](OC(C)=O)[C@H](OC(C)=O)[C@@H](OC(C)=O)CN1C(=O)Cc1ccc(Cl)cc1 [Example 40, 1,5-[(4-Chlorophenyl)acetylimino]-1,5-dideoxy-D-glucitol, tetraacetate] | – | – | – | – | 3 | 4 | – | – | 46 | 29 | 0 | Toxicity [1, 4]: 1 |
| CCCC(=O)OC[C@H]1NC[C@H](OC(=O)CCC)[C@@H](OC(=O)CCC)[C@@H]1OC(=O)CCC [Example 42, 1,5-Dideoxy-1,5-imino-D-glucitol, tetrabutyrate] | 97 | – | – | – | 2 | 4 | – | – | 13 | 31 | 0 | Toxicity [1, 4]: 1 |
| CCCCCCCCCCc1ccc(C(=O)N2C[C@H](OC(C)=O)[C@@H](OC(C)=O)[C@H](OC(C)=O)[C@H]2COC(C)=O)cc1 [Example 47, 1,5-[(4-Decylbenzoyl)imino]-1,5-dideoxy-D-glucitol, tetraacetate] | 86 | – | – | – | 1 | 4 | Toxic | 0 | 64 | 9 | 0 | – |
| CCCCN1C[C@H](OC(=O)CCC(C)C)[C@@H](OC(=O)CCC(C)C)[C@H](OC(=O)CCC(C)C)[C@H]1COC(=O)CCC(C)C [Example 49, 1,5-(Butylimino)-1,5-dideoxy-D-glucitol, tetra(4-methylpentanoate)] | – | 98 | – | – | – | 0 | – | – | – | – | – | – |
| CCCCN1C[C@H](OC(=O)C(C)(C)C)[C@@H](OC(=O)C(C)(C)C)[C@H](OC(=O)C(C)(C)C)[C@H]1COC(=O)C(C)(C)C [Example 50A] | 49 | – | – | – | 1 | 4 | Toxic | 0 | 20 | – | – | – |
| CCCCN1C[C@H](OC(=O)C(C)(C)C)[C@@H](O)[C@H](OC(=O)C(C)(C)C)[C@H]1COC(=O)C(C)(C)C [Example 50B] | 75 | 76 | 2 | – | 1 | – | – | 0 | 33 | 17 | 0 | – |
| CCCC(=O)OC[C@@H]1[C@@H](OC(=O)CCC)[C@H](OC(=O)CCC)[C@@H](OC(=O)CCC)CN1C(=O)c1ccccc1OC(C)=O [Example 52, 1,5-[[2-(Acetyloxy)benzoyl]imino]-1,5-dideoxy-D-glucitol, tetrabutanoate] | 98 | – | – | 0 | – | 4 | Toxic | 0 | 37 | 16 | 0 | – |
| CCCC(=O)OC[C@@H]1[C@@H](OC(=O)CCC)[C@H](OC(=O)CCC)[C@@H](OC(=O)CCC)CN1C(=O)Cc1cccs1 [Example 55, 1,5-Dideoxy-1,5-[[1-oxo-2-(2-thienyl)ethyl]imino]-D-glucitol, tetrabutanoate] | 95 | – | – | 0 | – | 4 | Toxic | 0 | 37 | 11 | 0 | – |
| CCCCN1C[C@H](OC(=O)CCC2CCCC2)[C@@H](OC(=O)CCC2CCCC2)[C@H](OC(=O)CCC2CCCC2)[C@H]1COC(=O)CCC1CCCC1 [Example 56, 1,5-(Butylimino)-1,5-dideoxy-D-glucitol, tetra(3-cyclopentylpropanoate)] | 16 | 56 | – | 0 | – | 0 | – | 0 | 13 | – | – | – |
| CCCC(=O)OC[C@@H]1[C@@H](OC(=O)CCC)[C@H](OC(=O)CCC)[C@@H](OC(=O)CCC)CN1CCCCCCCC(F)(F)F [Example 62, 1,5-(8,8,8-Trifluorooctylimino)-1,5-dideoxy-D-glucitol, tetrabutyrate] | 91 | 97 | 2 | – | 1 | – | – | – | 49 | – | – | Toxicity [1, 4]: 1 |
